“And” between values parts separate entries of the source, which are not always exact repeats. Equal values may be shown once.

The nature of data set [1]: Surfactant stability: change in lauric acid concentration of surfactant solutions after 65 C for 1 month vs baseline (HPLC/MS/MS). Format: physicochemical. To be noted: for Delta % lauric acid/Anionic Surfactant Conc.: 65 C 1 month; for Delta % lauric acid/Co Surfactant Conc.: 8.0% co surfactant alone, 65 C 1 month vs as made at about 25 C. On the procedure:
Lowering the personal care composition's pH is a key driver of hydroxy acid delivery to the hair and the skin under the hair. However, lowering pH reduces the options of suitable anionic surfactants free-of sulfates as many are susceptible to hydrolysis. Therefore, surfactant stability is analyzed by measuring the change in lauric acid concentration of surfactant solutions after exposure to high temperature (65 C) for 1 month and at range of pH vs. baseline conditions (surfactant solutions as made at ambient temperature of about 25 C). As shown in the table below, the Taurate surfactants are less susceptible to degradation at lower pH and (rows 8-10, 17-21 and 30-33) vs. other common amino acid based anionic surfactants (Sarcosinate, Alaninate, Glutamate, Glycinate, and Isethionate).
Approximately 10 mg of each sample is weighed into a vial and 10 mL of isopropanol (IPA) added and mixed. An aliquot of the diluted sample (0.1 mL) is then transferred into an autosampler vial containing stable-isotope-labeled (D23 lauric acid) internal standard (ISTD) and diluent (85/15 IPA/water, 0.9 mL). A set of lauric acid standards is prepared over an appropriate calibration range in diluent and spiked with ISTD. The standards and samples are analyzed using gradient reversed-phase high performance liquid chromatography with tandem mass spectrometry (HPLC/MS/MS). Lauric acid and the ISTD are monitored by negative ion electrospray (ESI) using “pseudo” selected reaction monitoring (i.e., a precursor-to-precursor transition with no mass loss). A standard curve is constructed by plotting the peak area ratio (peak area lauric acid/peak area ISTD) for each standard versus lauric acid concentration. The amount of lauric acid in the calibration standards and diluted samples is back-calculated using the generated regression equation. The result is reported as the mass of lauric acid per g of sample (% Lauric Acid).

The test system of data set [2] is forearm skin. The data set is described as follows: Surfactant mildness forearm study, GPSkin device, TEWL. To be noted: Sodium Methyl Cocoyl Taurate at 2.5% vs Sodium Lauryl Sulfate at 9.0%, pH 3.0 compositions. Format: in vivo. On the procedure: • Method. A simple forearm study design approach is leveraged to screen prototypes for skin health benefits. GPSkin devices from GPOWER Inc. are used to monitor skin health over the duration of the study. Baseline GPSkin health measures are taken on day 1 followed by product treatment and rinse. This procedure is repeated over three consecutive days and two treatments are evaluated. n=7

[3] abbreviates: 7.0% Cocamidopropyl Betaine + 3.0% anionic surfactant, pH 4.5.
[4] abbreviates: 7.0% Cocamidopropyl Betaine + 3.0% anionic surfactant, pH 5.2.
Where [5] appears, read: 7.0% Cocamidopropyl Betaine + 3.0% anionic surfactant, pH 5.8.
Where [6] appears, read: 7.0% Cocamidopropyl Betaine + 3.0% anionic surfactant, pH 6.5.

For `CCCCCCCCCCCC(=O)OC(C)CS(=O)(=O)[O-].[Na+]` (centres unmarked) [Sodium Lauroyl Methyl Isethionate], the “Delta % lauric acid/Anionic Surfactant Conc.” value is 16.097% in data set [1] (setting [3]), 5.262% in data set [1] (setting [4]), 2.867% in data set [1] (setting [5]) and 3.002% in data set [1] (setting [6]).
Consider Cocamidopropyl Betaine, for which the “Delta % lauric acid/Co Surfactant Conc.” value in data set [1] (pH 5.2) was 0.130%; in data set [1] (pH 5.8) it was 0.216%; in data set [1] (pH 6.5), 0.187% and 0.154%.
Consider Sodium cocoyl alaninate, for which the “Delta % lauric acid/Anionic Surfactant Conc.” value in data set [1] (setting [3]) is 9.905%; in data set [1] (setting [4]), 5.890%; in data set [1] (setting [5]), 2.058%; in data set [1] (setting [6]), 1.097%; in data set [1] (8.0% anionic surfactant alone, pH 5.2), 5.735%; in data set [1] (8.0% anionic surfactant alone, pH 5.6), 2.086%. The “Delta % lauric acid/Anionic Surfactant Conc.” value in data set [1] (8.0% anionic surfactant alone, pH 6.3) was 0.729%.
In the case of Sodium cocoyl glycinate, the “Delta % lauric acid/Anionic Surfactant Conc.” value in data set [1] (setting [3]) is 12.626%; in data set [1] (setting [4]), 7.971%; in data set [1] (setting [5]), 1.791%; in data set [1] (setting [6]), 0.619%.
On to Sodium cocoyl isethionate, for which the “Delta % lauric acid/Anionic Surfactant Conc.” value in data set [1] (setting [4]) stood at 7.379%; in data set [1] (7.0% Cocamidopropyl Betaine + 3.0% anionic surfactant, pH 5.7) it was 4.277%; in data set [1] (7.0% Cocamidopropyl Betaine + 3.0% anionic surfactant, pH 6.4), 3.124%.
As to Sodium cocoyl taurate, the “Delta % lauric acid/Anionic Surfactant Conc.” value in data set [1] (setting [3]) is reported as 1.076%; in data set [1] (setting [4]) it was 0.135%; in data set [1] (setting [5]), −0.276%; in data set [1] (setting [6]) it was 0.024%.
Turning to Sodium methyl cocoyl taurate, the “Delta % lauric acid/Anionic Surfactant Conc.” value was 1.005% and 1.220% and 1.468% in data set [1] (setting [4]); 0.689% in data set [1] (setting [5]); 0.510% in data set [1] (setting [6]); 0.218% in data set [1] (8.0% anionic surfactant alone, pH 5.1); 0.026% in data set [1] (8.0% anionic surfactant alone, pH 5.8); 0.223% in data set [1] (8.0% anionic surfactant alone, pH 6.5). Moreover, the “mildness on forearm skin” value in data set [2] was “milder on forearm skin than Sodium Lauryl Sulfate at 9.0%”.

Source of the values: patent US20240299275A1, “HYDROXY ACIDS FOR SCALP AND HAIR IN SULFATE FREE PERSONAL CARE COMPOSITIONS” (The Procter & Gamble Company, priority 2023, published 2024).
